Assay results published in PubChem BioAssay (NCI).
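At the GI50, growth is halved. TGI marks complete inhibition of growth.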

Key:
Assay in all cases: NCI-60 cell line screen, 384-well format
RPMI-8226 leukemia = test system: RPMI-8226 leukemia
SR leukemia = test system: SR leukemia
SF-539 CNS = test system: SF-539 CNS
HCC-2998 colon = test system: HCC-2998 colon
HT29 colon = test system: HT29 colon
OVCAR-3 ovarian = test system: OVCAR-3 ovarian
K-562 leukemia = test system: K-562 leukemia
NCI-H460 NSCLC = test system: NCI-H460 NSCLC
NCI-H522 lung = test system: NCI-H522 lung
NCI-H23 lung = test system: NCI-H23 lung
MDA-MB-435 melanoma = test system: MDA-MB-435 melanoma
ACHN renal = test system: ACHN renal
OVCAR-8 ovarian = test system: OVCAR-8 ovarian
NCI-H226 lung = test system: NCI-H226 lung
SK-MEL-28 melanoma = test system: SK-MEL-28 melanoma
LOX IMVI melanoma = test system: LOX IMVI melanoma
U251 glioblastoma = test system: U251 glioblastoma
M14 melanoma = test system: M14 melanoma
UACC-62 melanoma = test system: UACC-62 melanoma
IGROV1 ovarian = test system: IGROV1 ovarian
A549 NSCLC = test system: A549 NSCLC
UO-31 renal = test system: UO-31 renal
HCT-116 colon = test system: HCT-116 colon
SF-295 CNS = test system: SF-295 CNS
SF-268 CNS = test system: SF-268 CNS
MOLT-4 leukemia = test system: MOLT-4 leukemia
NCI-H322M lung = test system: NCI-H322M lung
PC-3 prostate = test system: PC-3 prostate

Compound: COc1ccc(-c2c(Nc3ccccn3)nc3c(C4=CCCCC4)c(-c4ccccc4)[nH]n3c2=O)cc1
- GI50 (RPMI-8226 leukemia): 288 nM
- TGI (RPMI-8226 leukemia): 1880 nM
- GI50 (SR leukemia): 222 nM
- TGI (SR leukemia): 1090 nM
- GI50 (SF-539 CNS): 1460 nM
- TGI (SF-539 CNS): > 100 µM
- GI50 (HCC-2998 colon): 2410 nM
- TGI (HCC-2998 colon): > 100 µM
- GI50 (HT29 colon): 4.21 µM
- TGI (HT29 colon): > 100 µM
- GI50 (OVCAR-3 ovarian): 1000 nM
- TGI (OVCAR-3 ovarian): 3.32 µM
- GI50 (K-562 leukemia): 928 nM
- TGI (K-562 leukemia): > 100 µM
- GI50 (NCI-H460 NSCLC): 353 nM
- TGI (NCI-H460 NSCLC): 2760 nM
- GI50 (NCI-H522 lung): 1040 nM
- TGI (NCI-H522 lung): 10.9 µM
- GI50 (NCI-H23 lung): 1330 nM
- TGI (NCI-H23 lung): > 100 µM
- GI50 (MDA-MB-435 melanoma): 3.08 µM
- TGI (MDA-MB-435 melanoma): > 100 µM
- GI50 (ACHN renal): 1790 nM
- TGI (ACHN renal): > 100 µM
- GI50 (OVCAR-8 ovarian): 2110 nM
- TGI (OVCAR-8 ovarian): > 100 µM
- GI50 (NCI-H226 lung): 2010 nM
- TGI (NCI-H226 lung): > 100 µM
- GI50 (SK-MEL-28 melanoma): 3.09 µM
- TGI (SK-MEL-28 melanoma): > 100 µM
- GI50 (LOX IMVI melanoma): 989 nM
- TGI (LOX IMVI melanoma): 8.41 µM
- GI50 (U251 glioblastoma): 1270 nM
- TGI (U251 glioblastoma): > 100 µM
- GI50 (M14 melanoma): 841 nM
- TGI (M14 melanoma): > 100 µM
- GI50 (UACC-62 melanoma): 890 nM
- TGI (UACC-62 melanoma): > 100 µM
- GI50 (IGROV1 ovarian): 2450 nM
- TGI (IGROV1 ovarian): > 100 µM
- GI50 (A549 NSCLC): 1440 nM
- TGI (A549 NSCLC): > 100 µM
- GI50 (UO-31 renal): 3.36 µM
- TGI (UO-31 renal): > 100 µM
- GI50 (HCT-116 colon): 1280 nM
- TGI (HCT-116 colon): 5.72 µM
- GI50 (SF-295 CNS): 1120 nM
- TGI (SF-295 CNS): > 100 µM
- GI50 (SF-268 CNS): 589 nM
- TGI (SF-268 CNS): > 100 µM
- GI50 (MOLT-4 leukemia): 189 nM
- TGI (MOLT-4 leukemia): 431 nM
- GI50 (NCI-H322M lung): 1060 nM
- TGI (NCI-H322M lung): > 100 µM
- GI50 (PC-3 prostate): 1580 nM
- TGI (PC-3 prostate): > 100 µM
